Assay results reported in patent US20250388576A1, “PYRIDONOPYRIMIDINE DERIVATIVE AS RSK INHIBITOR AND USE THEREOF” (EAST CHINA NORMAL UNIVERSITY, priority 2022, published 2025).

What was measured:
RSK4 kinase = RSK4 kinase (Homo sapiens (Human), UniProt Q9UK32); assay: In vitro enzyme activity assay (Kinase-Glo), RSK4; format: biochemical; details: 10 μM ATP, 30° C., 40 minutes
Method: The experiment for testing the in vitro inhibiting effect of the compound provided in the present invention on the activity of RSK4 kinase is as follows. The method for RSK1-3 was the same as that for RSK4 (Kashem, M. A. et al. J. Biomol. Screen. 12, 70-83):
All enzyme reactions were carried out at 30° C. for 40 minutes. 50 μL of reaction mixture contains 40 mM Tris, pH 7.4, 10 mM MgCl2, 0.1 mg/mL BSA, 1 mM DTT, 10 μM ATP, 0.2 μg/mL kinase, and 100 μM lipid substrate. The compound was diluted in 10% DMSO, and 5 μL of the diluted solution was added to 50 μL of the reaction, so that the final concentration of DMSO in all reactions was 1%. Kinase-Glo reagent was added to the reaction system for detection. Kinase activity was measured by quantifying the amount of ATP remaining in the solution after the kinase reaction. IC50 values were calculated using nonlinear regression, and each experiment was repeated more than twice.

renal cancer cells ACHN = assay: Anti-cell proliferation activity (CCK8), ACHN; format: cell-based; details: Homo sapiens, 72 hours
Method: (§1) The specific experimental procedure is as follows: cells were digested and centrifuged at 1000 rpm for 3 minutes. The cell density was adjusted to 3×10^4 cells/mL. 3000 cells per well was seeded, and the outermost ring was filled with culture medium. The plate was placed in a 37° C., 5% CO2 incubator overnight to allow cell attachment. The 10 mM stock solution was diluted to 100 μM with the culture medium, and then further diluted in three-fold with the culture medium containing 1% DMSO to prepare eight concentration gradients. 10 μL of the compound was added to each well, and the remaining volume was filled with 10 μL of culture medium containing 1% DMSO. After culturing the cells for 72 hours, 10 μL of CCK8 reagent was added to each well. […] Cell viability (%)=(OD of drug-treated cells−OD of blank)/(OD of control cells−OD of blank)×100%. After the experiment was independently repeated for three times, the variance was calculated and statistical graphs were created to analyze the effect of the drug on cell viability. IC50 values were calculated by fitting with GraphPad Prism software.

[1] = system: esophageal squamous cell carcinoma cells KYSE510; assay: Anti-cell proliferation activity (CCK8), KYSE510; format: cell-based; details: Homo sapiens, KYSE-510, 72 hours
Method: as §1

[2] = system: esophageal squamous cell carcinoma cells KYSE150; assay: Anti-cell proliferation activity (CCK8), KYSE150; format: cell-based; details: Homo sapiens, KYSE-150, 72 hours
Method: as §1

[3] = system: esophageal squamous cell carcinoma cells TE10; assay: Anti-cell proliferation activity (CCK8), TE10; format: cell-based; details: Homo sapiens, TE-10, 72 hours
Method: as §1

Chain of RSK4 kinase (Q9UK32 whole entry): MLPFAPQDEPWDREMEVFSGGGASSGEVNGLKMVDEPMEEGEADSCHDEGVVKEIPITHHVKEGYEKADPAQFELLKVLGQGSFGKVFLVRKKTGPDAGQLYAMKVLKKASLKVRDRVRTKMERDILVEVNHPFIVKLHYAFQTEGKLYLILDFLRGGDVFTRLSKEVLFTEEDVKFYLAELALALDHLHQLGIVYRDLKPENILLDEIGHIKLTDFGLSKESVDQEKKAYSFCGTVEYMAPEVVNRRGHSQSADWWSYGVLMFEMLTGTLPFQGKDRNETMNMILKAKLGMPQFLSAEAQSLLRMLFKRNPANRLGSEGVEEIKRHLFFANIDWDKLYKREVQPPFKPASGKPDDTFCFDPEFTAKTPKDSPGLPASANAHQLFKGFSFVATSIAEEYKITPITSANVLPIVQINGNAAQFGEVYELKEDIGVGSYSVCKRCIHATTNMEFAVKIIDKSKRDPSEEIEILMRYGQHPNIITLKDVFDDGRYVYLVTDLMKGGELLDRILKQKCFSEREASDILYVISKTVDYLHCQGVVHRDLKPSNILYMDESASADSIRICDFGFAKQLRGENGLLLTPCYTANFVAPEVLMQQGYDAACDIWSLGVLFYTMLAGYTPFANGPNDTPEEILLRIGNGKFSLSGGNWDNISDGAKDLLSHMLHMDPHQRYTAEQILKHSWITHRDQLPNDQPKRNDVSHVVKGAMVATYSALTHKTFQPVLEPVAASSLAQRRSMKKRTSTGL

Row | SMILES | IC50 (RSK4 kinase) | other results
1 | Cc1cc(=O)n(C2CCC(F)(F)C2)c2nc(Nc3ccc4c(c3)CC(=O)N4)ncc12 (stereo not drawn) [Compound 015, 8-(3,3-Difluorocyclopentyl)-5-methyl-2-((2-oxoindolin-5-yl)amino)pyrido[2,3-d]pyrimidin-7(8H)-one] | 46 ± 4 nM | –
2 | Cc1c(Br)c(=O)n(C2CCCC2)c2nc(Nc3ccc4[nH]ncc4c3)ncc12 [Compound 011, 2-((1H-indazol-5-yl)amino)-6-bromo-8-cyclopentyl-5-methylpyrido[2,3-d]pyrimidin-7(8H)-one] | 44 ± 7 nM | –
3 | Cc1cc(=O)n(C2CCCC2)c2nc(Nc3ccc4c(c3)CC(=O)N4)ncc12 [Compound 007, 8-Cyclopentyl-5-methyl-2-((2-oxoindolin-5-yl)amino)pyrido[2,3-d]pyrimidin-7(8H)-one] | 17 ± 6 nM | IC50 (renal cancer cells ACHN): 1940 ± 70 nM; IC50 [1]: 6150 ± 270 nM; IC50 [2]: 4650 ± 2110 nM
4 | CC(=O)N(c1cc(F)c(O)c(F)c1)c1ncc2c(C)cc(=O)n(C3CCCC3)c2n1 [Compound 002, N-(8-Cyclopentyl-5-methyl-7-oxo-7,8-dihydropyrido[2,3-d]pyrimidin-2-yl)-N-(3,5-difluoro-4-hydroxyphenyl)acetamide] | 139 ± 19 nM | –
5 | Cc1cc(=O)n(C2CCCC2)c2nc(Nc3ccc4[nH]nnc4c3)ncc12 [Compound 004, 2-((1H-benzo[d][1,2,3]triazol-5-yl)amino)-8-cyclopentyl-5-methylpyrido[2,3-d]pyrimidin-7(8H)-one] | 3020 ± 673 nM | –
6 | Cc1cc(=O)n(C2CCCC2)c2nc(Nc3ccc4[nH]nc(F)c4c3)ncc12 [Compound 012, 8-Cyclopentyl-2-[(3-fluoro-1H-indazol-5-yl)amino]-5-methylpyrido[2,3-d]pyrimidin-7(8H)-one] | 280 ± 54 nM | –
7 | Cc1cc(=O)n(C2CCCCCC2)c2nc(Nc3ccc4[nH]ncc4c3)ncc12 [Compound 020, 2-((1H-indazol-5-yl)amino)-5-methyl-8-(cycloheptyl)pyrido[2,3-d]pyrimidin-7(8H)-one] | 201 ± 77 nM | –
8 | Cc1cc(=O)n(C2CCCC2)c2nc(Nc3ccc(F)c4[nH]ncc34)ncc12 [Compound 010] | 180 ± 16 nM | –
9 | CC(C)CCN1c2nc(Nc3cc(F)c(O)c(F)c3)ncc2N(C)C(=O)C1C (stereo not drawn) [BI-D1870, reference compound] | – | IC50 (renal cancer cells ACHN): > 10000 nM; IC50 [3]: 3860 ± 760 nM; IC50 [1]: 11700 ± 2580 nM; IC50 [2]: 20200 ± 1560 nM
10 | Cc1cc(=O)n(C2CCC(F)(F)C2)c2nc(Nc3cnc4[nH]ncc4c3)ncc12 (stereo not drawn) [Compound 017, 2-((1H-pyrazolo[3,4-b]pyridin-5-yl)amino)-8-(3,3-difluorocyclopentyl)-5-methylpyrido[2,3-d]pyrimidin-7(8H)-one] | 12 ± 2 nM | –
11 | Cc1cc(=O)n(C2CCCC2)c2nc(Nc3cc(F)c(O)c(F)c3)ncc12 [Compound 003, 8-Cyclopentyl-2-((3,5-difluoro-4-hydroxyphenyl)amino)-5-methylpyrido[2,3-d]pyrimidin-7(8H)-one] | 12 ± 3 nM | IC50 (renal cancer cells ACHN): 3100 ± 110 nM; IC50 [1]: 3130 ± 1160 nM; IC50 [2]: 4080 ± 1120 nM
12 | Cc1cc(=O)n(C2CCCC2)c2nc(Nc3cc(F)c4[nH]ncc4c3)ncc12 [Compound 009, 8-Cyclopentyl-2-((7-fluoro-1H-indazol-5-yl)amino)-5-methylpyrido[2,3-d]pyrimidin-7(8H)-one] | 39 ± 8 nM | –
13 | Cc1cc(=O)n(C2CCC(O)C2)c2nc(Nc3ccc4[nH]ncc4c3)ncc12 (stereo not drawn) [Compound 018, 2-((1H-indazol-5-yl)amino)-8-(3-hydroxycyclopentyl)-5-methylpyrido[2,3-d]pyrimidin-7(8H)-one] | 30 ± 12 nM | –
14 | Cc1cc(=O)n(C2CCC(F)(F)C2)c2nc(Nc3cc(F)c4[nH]ncc4c3)ncc12 (stereo not drawn) [Compound 016, 8-(3,3-Difluorocyclopentyl)-2-((7-fluoro-1H-indazol-5-yl)amino)-5-methylpyrido[2,3-d]pyrimidin-7(8H)-one] | 13 ± 3 nM | IC50 (renal cancer cells ACHN): 870 ± 370 nM; IC50 [3]: 1700 ± 1430 nM
15 | Cc1c(Br)c(=O)n(C2CCCC2)c2nc(Nc3ccc4c(c3)CC(=O)N4)ncc12 [Compound 014, 6-Bromo-8-cyclopentyl-5-methyl-2-(2-oxoindolin-5-ylamino)pyrido[2,3-d]pyrimidin-7(8H)-one] | 214 ± 20 nM | –
16 | Cc1cc(=O)n(C2CCCC2)c2nc(Nc3ccc4[nH]c(=O)oc4c3)ncc12 [Compound 008, 6-((8-Cyclopentyl-5-methyl-7-oxo-7,8-dihydropyrido[2,3-d]pyrimidin-2-yl)amino)benzo[d]oxazol-2(3H)-one] | 10800 ± 2030 nM | –
17 | Cc1cc(=O)n(C2CCOC2)c2nc(Nc3ccc4[nH]ncc4c3)ncc12 (stereo not drawn) [Compound 021, 2-((1H-indazol-5-yl)amino)-5-methyl-8-(tetrahydrofuran-3-yl)pyrido[2,3-d]pyrimidin-7(8H)-one] | 392 ± 162 nM | –
18 | Cc1cc(=O)n(C2CCCCC2)c2nc(Nc3ccc4[nH]ncc4c3)ncc12 [Compound 019, 2-((1H-indazol-5-yl)amino)-5-methyl-8-(cyclohexyl)pyrido[2,3-d]pyrimidin-7(8H)-one] | 86 ± 41 nM | –
19 | Cc1cc(=O)n(C2CCCC2)c2nc(Nc3cnc4[nH]ncc4c3)ncc12 [Compound 013, 2-((1H-pyrazolo[3,4-b]pyridin-5-yl)amino)-8-cyclopentyl-5-methylpyrido[2,3-d]pyrimidin-7(8H)-one] | 39 ± 4 nM | –
